The source made the active and inactive calls. The rule behind the calls is not given here.
Assays:
Escherichia coli [1] = assay: Antibacterial activity against Escherichia coli B; format: functional, organism-based
Escherichia coli [2] = assay: Antibacterial activity against Escherichia coli AS19; format: functional, organism-based

Row | SMILES | inhibition (Escherichia coli [1]) | inhibition (Escherichia coli [2])
1 | Cc1nc(F)sc1CCO | inactive | inactive
2 | OCCc1scnc1C(F)(F)F | inactive | inactive

From ChEMBL document CHEMBL3228004, “An attempt to apply lethal synthesis to the design of chemotherapeutic agents. Fluorinated 5 beta-(hydroxyethyl)-4-methylthiazoles” (J Med Chem, 1979)
